What was measured:
CDK6/Cyclin D3 = CDK6/Cyclin D3 (Homo sapiens (Human), UniProt Q00534); experiment: TR-FRET kinase inhibition assay, CDK6/Cyclin D3; assay type: biochemical; details: 1 mM ATP, 0.15 μM Rb (Ser780)-biotin substrate, read-out: CDK6D3 IC50
Procedure: (§1) Compounds disclosed herein were tested for inhibition of CDK4/Cyclin D1 or CDK6/Cyclin D3 kinase in an assay based on the time-resolved fluorescence-resonance energy transfer (TR-FRET) methodology. The assay was carried out in 384-well low volume black plates in a reaction mixture containing CDK4/Cyclin D1 or CDK6/Cyclin D3, 1 mM ATP, 0.15 μM Rb (Ser780)-biotin substrate and 0-10 μM compound in buffer containing 50 mM HEPES pH7.0, 0.02% NaN3, 0.01% BSA, 0.1 mM Orthovanadate, 50 mM MgCl2, 1 mM DTT and 0.005% Tween-20. The kinase was incubated with compound for 60 minutes at room temperature and the reaction was initiated by the addition of ATP and Rb (Ser780)-biotin substrate. After reaction at room temperature for 120 minutes, an equal volume of stop/detection solution was added according to the manufacture's instruction (Cisbio Bioassays). The stop/detection solution contained Streptavidin-XL665 and Anti-pRb (Ser780) mAb-Eu Cryptate in Detection buffer (Cisbio Bioassays). Plates were incubated at room temperature for 60 minutes, and the TR-FRET signals (ex337 nm, em665 nm/620 nm) were recorded on a PHERAstar FSX plate reader (BMG Labtech). The inhibition percentage of CDK4/Cyclin D1 or CDK6/Cyclin D3 kinase activity in presence of increasing concentrations of compounds was calculated based on the ratio of fluorescence at 665 nm to that at 620 nm. The IC50 for each compound was derived from fitting the data to the four-parameter logistic equation by Dotmatics.

CDK4/Cyclin D1 = CDK4/Cyclin D1 (Homo sapiens (Human), UniProt P11802); experiment: TR-FRET kinase inhibition assay, CDK4/Cyclin D1; assay type: biochemical; details: 1 mM ATP, 0.15 μM Rb (Ser780)-biotin substrate, read-out: CDK4D1 IC50
Procedure: as §1, with “The assay was carried out in 384-well low volume black plates in a reaction mixture containing CDK4/Cyclin D1 or CDK6/Cyclin D3, 1 mM ATP, 0.15 μM Rb (Ser780)-biotin substrate and 0-10 μM compound in buffer containing 50 mM HEPES pH7.0, 0.02% NaN3, 0.01% BSA, 0.1 mM Orthovanadate, 50 mM MgCl2, 1 mM DTT and 0.005% Tween-20.” left out, “Plates were incubated at room temperature for 60 minutes, and the TR-FRET signals (ex337 nm, em665 nm/620 nm) were recorded on a PHERAstar FSX plate reader (BMG Labtech).” left out

Sequence of CDK6/Cyclin D3 (Q00534 whole entry): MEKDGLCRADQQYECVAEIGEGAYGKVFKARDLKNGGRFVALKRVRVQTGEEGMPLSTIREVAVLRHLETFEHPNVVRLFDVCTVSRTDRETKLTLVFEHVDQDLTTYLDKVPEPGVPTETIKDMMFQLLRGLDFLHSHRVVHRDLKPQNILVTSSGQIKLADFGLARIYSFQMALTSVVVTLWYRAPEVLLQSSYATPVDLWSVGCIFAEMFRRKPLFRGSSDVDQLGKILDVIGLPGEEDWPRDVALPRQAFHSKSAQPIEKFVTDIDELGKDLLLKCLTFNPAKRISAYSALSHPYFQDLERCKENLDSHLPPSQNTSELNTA
Sequence of CDK6/Cyclin D3 (P30281 whole entry partner): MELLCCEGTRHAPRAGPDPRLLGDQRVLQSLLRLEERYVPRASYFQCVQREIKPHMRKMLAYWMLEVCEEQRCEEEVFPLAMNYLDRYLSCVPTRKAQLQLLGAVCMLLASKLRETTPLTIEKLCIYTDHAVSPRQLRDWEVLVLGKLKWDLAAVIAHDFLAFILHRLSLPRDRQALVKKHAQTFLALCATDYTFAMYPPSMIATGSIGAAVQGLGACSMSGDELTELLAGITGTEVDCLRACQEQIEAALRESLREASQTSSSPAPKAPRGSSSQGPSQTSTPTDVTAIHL
Sequence of CDK4/Cyclin D1 (P11802 whole entry): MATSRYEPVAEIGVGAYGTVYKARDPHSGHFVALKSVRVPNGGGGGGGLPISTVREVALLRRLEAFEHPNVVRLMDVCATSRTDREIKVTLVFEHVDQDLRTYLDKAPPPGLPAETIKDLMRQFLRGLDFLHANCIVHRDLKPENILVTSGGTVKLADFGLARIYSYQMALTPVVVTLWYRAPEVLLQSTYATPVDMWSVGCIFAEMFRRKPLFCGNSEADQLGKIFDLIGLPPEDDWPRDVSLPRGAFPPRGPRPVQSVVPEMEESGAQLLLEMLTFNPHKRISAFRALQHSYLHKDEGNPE
Sequence of CDK4/Cyclin D1 (P24385 whole entry partner): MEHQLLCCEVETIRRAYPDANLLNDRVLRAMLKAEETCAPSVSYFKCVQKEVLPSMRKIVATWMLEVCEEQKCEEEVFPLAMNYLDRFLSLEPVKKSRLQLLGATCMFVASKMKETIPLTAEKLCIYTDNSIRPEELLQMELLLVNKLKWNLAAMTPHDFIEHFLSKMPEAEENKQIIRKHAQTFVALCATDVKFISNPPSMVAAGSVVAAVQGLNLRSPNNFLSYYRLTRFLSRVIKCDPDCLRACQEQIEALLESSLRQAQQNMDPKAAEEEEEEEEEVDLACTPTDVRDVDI

| SMILES | IC50 (CDK6/Cyclin D3) | IC50 (CDK4/Cyclin D1) |
| --- | --- | --- |
| CC(C)n1ccc(=O)c2ccc(-c3nc(N[C@@H]4CCOC[C@H]4O)ncc3F)cc21 [Example 3, 7-(5-fluoro-2-(((3S,4R)-3-hydroxytetrahydro-2H-pyran-4-yl)amino)pyrimidin-4-yl)-1-isopropylquinolin-4(1H)-one] | 1250 nM | 78 nM |
| Cc1c(CN2CCC(O)CC2)n(C(C)C)c2cc(-c3nc(N[C@@H]4CCOC[C@H]4O)ncc3F)ccc2c1=O [Example 115, 7-(5-fluoro-2-(((3S,4R)-3-hydroxytetrahydro-2H-pyran-4-yl)amino)pyrimidin-4-yl)-2-((4-hydroxypiperidin-1-yl)methyl)-1-isopropyl-3-methylquinolin-4(1H)-one] | 271 nM | 6.6 nM |
| CC(C)n1c(CN2CCC(F)(F)C2)cc(=O)c2ccc(-c3nc(N[C@@H]4CCOC[C@H]4O)ncc3F)cc21 [Example 80, 2-((3,3-difluoropyrrolidin-1-yl)methyl)-7-(5-fluoro-2-(((3S,4R)-3-hydroxytetrahydro-2H-pyran-4-yl)amino)pyrimidin-4-yl)-1-isopropylquinolin-4(1H)-one] | 616 nM | 22 nM |
| CC(C)n1c(CN2CCC(O)CC2)cc(=O)c2ccc(-c3nc(N[C@@H]4CCOC[C@H]4O)ncc3F)cc21 [Example 39, 7-(5-fluoro-2-(((3S,4R)-3-hydroxytetrahydro-2H-pyran-4-yl)amino)pyrimidin-4-yl)-2-((4-hydroxypiperidin-1-yl)methyl)-1-isopropylquinolin-4(1H)-one] | 744 nM | 24 nM |
| CC(C)n1c(CN2CC3CC2C3)cc(=O)c2ccc(-c3nc(N[C@@H]4CCOC[C@H]4O)ncc3F)cc21 [Example 43, 2-((2-azabicyclo[2.1.1]hexan-2-yl)methyl)-7-(5-fluoro-2-(((3S,4R)-3-hydroxytetrahydro-2H-pyran-4-yl)amino)pyrimidin-4-yl)-1-isopropylquinolin-4(1H)-one] | 1300 nM | 25 nM |
| CC(C)n1c(CN2CC(F)C2)cc(=O)c2ccc(-c3nc(N[C@@H]4CCOC[C@H]4O)ncc3F)cc21 [Example 74, 7-(5-fluoro-2-(((3S,4R)-3-hydroxytetrahydro-2H-pyran-4-yl)amino)pyrimidin-4-yl)-2-((3-fluoroazetidin-1-yl)methyl)-1-isopropylquinolin-4(1H)-one] | 810 nM | 30 nM |
| Cc1c(CN2CC3CCC(C2)O3)n(C(C)C)c2cc(-c3nc(N[C@@H]4CCOC[C@H]4O)ncc3F)ccc2c1=O [Example 102, 2-((8-oxa-3-azabicyclo[3.2.1]octan-3-yl)methyl)-7-(5-fluoro-2-(((3S,4R)-3-hydroxytetrahydro-2H-pyran-4-yl)amino)pyrimidin-4-yl)-1-isopropyl-3-methylquinolin-4(1H)-one] | 330 nM | 15 nM |
| Cc1c(CNC(C)C)n(C(C)C)c2cc(-c3nc(N[C@@H]4CCOC[C@H]4O)ncc3F)ccc2c1=O [Example 110, 7-(5-fluoro-2-(((3S,4R)-3-hydroxytetrahydro-2H-pyran-4-yl)amino)pyrimidin-4-yl)-1-isopropyl-2-((isopropylamino)methyl)-3-methylquinolin-4(1H)-one] | 567 nM | 9.3 nM |
| Cc1c(CN)n(C(C)C)c2cc(-c3nc(N[C@@H]4CCOC[C@H]4O)ncc3F)ccc2c1=O [Example 120, 2-(aminomethyl)-7-(5-fluoro-2-(((3S,4R)-3-hydroxytetrahydro-2H-pyran-4-yl)amino)pyrimidin-4-yl)-1-isopropyl-3-methylquinolin-4(1H)-one] | 265 nM | 5.9 nM |
| CC(C)n1c(CO)cc(=O)c2ccc(-c3nc(N[C@@H]4CCOC[C@H]4O)ncc3F)cc21 [Example 17, 7-(5-fluoro-2-(((3S,4R)-3-hydroxytetrahydro-2H-pyran-4-yl)amino)pyrimidin-4-yl)-2-(hydroxymethyl)-1-isopropylquinolin-4(1H)-one] | 120 nM | 7.5 nM |

Source: patent US20250136586A1, “Substituted 7-(Pyrimidin-4-yl)Quinolin-4(1H)-One Compounds as Cyclin Dependent Kinase Inhibitors” (BeiGene, Ltd., priority 2022, published 2025)
